# Literature values in patent US20240197617A1, “ANTI-AGING COSMETIC COMPOSITION BASED ON RESVERATROL AND MAGNOLIA” (Tomcat International Limited, priority 2021, published 2024).
# Test system: TET enzymes
# Details: study carried out on a mouse
structure (smiles),measurement,value
C=CCc1ccc(O)c(-c2ccc(O)c(CC=C)c2)c1 [honokiol],Effect on activity of TET enzymes,stimulated the activity of TET enzymes
